Paper PMC9847679, “The anti-breast cancer stem cell properties of gold(I)-non-steroidal anti-inflammatory drug complexes” (Chemical Science, 2022)

Key:
[1] = Water-octanol partition coefficient (shake-flask, UV-vis); type: physicochemical; conditions: room temperature 24 h
Method: Measurement of water-octanol partition coefficient (LogP). The LogP values for 1-8 were determined using the shake-flask method and UV-vis spectroscopy. The 1-octanol used in this experiment was pre-saturated with water. An aqueous solution of 1-8 (500 μL, 100 μM) was incubated with 1-octanol (500 μL) in a 1.5 mL tube. The tube was shaken at room temperature for 24 h. The two phases were separated by centrifugation and the 1-8 content in each phase was determined by UV-vis spectroscopy. […]

[2] = test system: COX-2; experiment: COX-2 expression assay (flow cytometry); type: cell-based, human; conditions: LPS 2.5 μM 24 h pre-treatment; 1 at IC50 value or indomethacin 20 μM, 48 h
Method: COX-2 Expression Assay. HMLER-shEcad cells were seeded in 6-well plates (at a density […]
indomethacin (20 μM) and incubated for a further 48 h. The cells were then harvested by trypsinisation, fixed with 4% paraformaldehyde (at 37 °C for 10 min), permeabilised with ice-cold methanol (for 30 min), and suspended in PBS (200 μL). […]
labelled anti-COX-2 antibody (5 μL) was then added to the cell suspension and incubated in the dark for 1 h. The cells were then washed with PBS (1 mL) and analysed using a FACSCanto II flow cytometer (BD Biosciences) (10,000 events per sample were acquired) at the University of Leicester FACS Facility. The FL1 channel was used to assess COX-2 expression. Cell populations were analysed using the FlowJo software (Tree Star).
COX-2 Inhibition Enzyme Immunoassay (EIA). […]
(ovine) Inhibitor Screening Assay (Cayman Chemicals).” The assay was performed according to the manuf acturer’s instructions using a 96-well plate set up.

[3] = test system: HMLER-shEcad cells; experiment: Intracellular ROS assay (DCFH-DA, flow cytometry); type: cell-based, human; conditions: 0.4 μM
Method: media. The final concentration of DMSO in each well was ≤1 %. After 72 h, 20 μl of MTT (4 mg mL-1 in PBS) was added to each well and the plates incubated for an additional 4 h at 37 °C. The media/MTT mixture was eliminated and DMSO (100 μl per well) was added to dissolve the formazan precipitates. The optical density was measured at 550 nm using a 96-well multiscanner autoreader. Absorbance values were normalised to (DMSO-containing) control wells and plotted as concentration of test compound versus % cell viability. IC50 values were interpolated from the resulting dose dependent curves. The reported IC50 values are the average of three independent experiments (n = 18).
Tumorsphere Formation and Viability Assay. […] Mammospheres treated with 1-3, 5-fluorouracil, capecitabine, cisplatin, carboplatin, and salinomycin (at their respective IC20 values, 5 days) were counted and imaged using an inverted microscope. The viability of the mammospheres was determined by addition of a resazurin-based reagent, TOX8 (Sigma). After incubation for 16 h, the fluorescence of the solutions was read at 590 nm (λex = 560 nm). […] Fluorescence values were normalised to DMSO-containing controls and plotted as concentration of test compound versus % mammospheres viability. […]
Cellular Uptake. […] The number of cells was counted at this stage, using a haemocytometer. […] Gold levels are expressed as mass of Au (ng) per million cells. […]

[4] = Reaction with thiol-containing biomolecules (1H and 31P NMR); conditions: 10 mM in DMSO-d6, 37 °C, 72 h
Method: As the mechanism of toxicity of many gold(I) complexes is associated to their interaction with thiol groups in proteins,[23] the reaction of 1 with N-acetylcysteine (NAC) and glutathione (GSH), model thiol-containing biomolecules, was probed using ^1H and ^31P{^1H} NMR spectroscopy studies (over 72 h at 37 °C). […] The ^31P{^1H} NMR studies also indicated the immediate formation of [Au^I(NAC)(PPh3)] or [Au^I(GSH)(PPh3)] (Fig. S50–S51 ^†). [Au^I(NAC)(PPh3)] and [Au^I(GSH)(PPh3)] were independently prepared in situ by reacting [Au^I(acac)(PPh3)][58] with NAC or GSH in DMSO-d6, to confirm the abovementioned assignments.

COc1ccc2c(c1)c(CC(=O)[O][Au][PH](c1ccccc1)(c1ccccc1)c1ccccc1)c(C)n2C(=O)c1ccc(Cl)cc1 [complex 1]
LogP value [1]: 1.64 ± 0.42
COX-2 expression [2]: decreased
increase in intracellular ROS levels ([3]; 6 h exposure (peak)): 104%
increase in intracellular ROS levels ([3]; prolonged (16–24 h) exposure): statistically insignificant increases in ROS levels
reaction with stoichiometric NAC or GSH [4]: The reaction occurred immediately
